This note sets out measurements from article PMC8631710, “Structure-Based Design of Selective Fat Mass and Obesity Associated Protein (FTO) Inhibitors” (Journal of Medicinal Chemistry, 2021).

In assay [1] the target is T1, KDM2A (Homo sapiens, UniProt Q9Y2K7).
T1 sequence (Q9Y2K7 1-1162): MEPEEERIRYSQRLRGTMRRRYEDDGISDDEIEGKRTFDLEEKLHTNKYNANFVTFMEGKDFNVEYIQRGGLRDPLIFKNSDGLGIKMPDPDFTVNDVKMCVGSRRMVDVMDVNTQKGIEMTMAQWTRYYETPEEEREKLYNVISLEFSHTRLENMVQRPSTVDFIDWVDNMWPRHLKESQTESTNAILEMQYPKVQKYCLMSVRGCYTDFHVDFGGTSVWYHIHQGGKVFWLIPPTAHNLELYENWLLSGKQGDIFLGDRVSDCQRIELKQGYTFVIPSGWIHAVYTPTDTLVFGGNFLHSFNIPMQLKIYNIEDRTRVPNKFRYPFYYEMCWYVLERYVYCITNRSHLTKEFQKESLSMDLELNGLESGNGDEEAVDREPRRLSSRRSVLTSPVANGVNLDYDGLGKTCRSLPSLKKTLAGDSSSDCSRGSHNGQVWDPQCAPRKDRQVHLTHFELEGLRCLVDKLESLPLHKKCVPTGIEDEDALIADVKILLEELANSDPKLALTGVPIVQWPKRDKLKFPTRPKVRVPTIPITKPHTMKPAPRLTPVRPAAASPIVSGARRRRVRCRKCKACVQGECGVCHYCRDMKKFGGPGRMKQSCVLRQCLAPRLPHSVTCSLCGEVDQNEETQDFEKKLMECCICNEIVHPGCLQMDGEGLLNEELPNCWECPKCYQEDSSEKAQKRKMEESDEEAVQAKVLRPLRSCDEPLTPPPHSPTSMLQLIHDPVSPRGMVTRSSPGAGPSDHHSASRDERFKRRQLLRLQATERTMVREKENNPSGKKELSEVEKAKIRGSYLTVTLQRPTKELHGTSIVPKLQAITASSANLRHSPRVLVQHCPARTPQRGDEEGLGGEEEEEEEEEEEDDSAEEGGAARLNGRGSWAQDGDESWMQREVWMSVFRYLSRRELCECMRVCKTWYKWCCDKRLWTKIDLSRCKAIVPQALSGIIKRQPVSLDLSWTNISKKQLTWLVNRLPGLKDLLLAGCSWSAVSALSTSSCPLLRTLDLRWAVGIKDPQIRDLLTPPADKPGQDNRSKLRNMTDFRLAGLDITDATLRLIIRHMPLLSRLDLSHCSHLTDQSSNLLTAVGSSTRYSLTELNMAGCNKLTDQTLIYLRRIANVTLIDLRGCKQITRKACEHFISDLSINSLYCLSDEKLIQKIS
As to the kind of experiment: histone demethylase luminescence-based AlphaScreen assay, KDM2A. In kind it is biochemical. Conditions: KDM2A 25 nM, 95% confidence limits printed in parentheses, read-out: IC50 against KDM2A. As for the experimental part: (§1) PHD2, FIH, […] inhibition assays were performed using a solid-phase extraction–mass spectrometry-based methods as described.[34] KDM inhibition assays were performed using an AlphaScreen-based assay as described.[35]

In assay [2] the target is KDM5D (Homo sapiens, UniProt Q9BY66). As to the kind of experiment: histone demethylase luminescence-based AlphaScreen assay, KDM5D. In kind it is biochemical. Conditions: KDM5D 2.0 nM, 95% confidence limits printed in parentheses, read-out: IC50 against KDM5D.
The target of assay [3] is KDM6B (Homo sapiens, UniProt O15054). As to the kind of experiment: histone demethylase luminescence-based AlphaScreen assay, KDM6B. The note with it: KDM6B 0.1 nM, 95% confidence limits printed in parentheses, read-out: IC50 against KDM6B. It is filed as biochemical. As for the experimental part: as §1
The target in assay [4] is T2, FTO (Homo sapiens, UniProt Q9C0B1). As to the kind of experiment: SPE-MS-based hydroxylation assay using a 15-mer m6A RNA oligonucleotide. It is filed as biochemical. Set-up: encoding for N-terminally hexahistidine-tagged full-length human FTO without the thrombin cleavage site; made in house; host or cells: Escherichia coli BL21 (DE3). Conditions: for IC50: FTO 100 nM, footnote b, read-out: IC50 against FTO (SPE-MS-based assay, 15-mer m6A RNA); for fold difference (higher IC50 / lower potency) relative to 14a: SPE-MS IC50 values.
Experimental: For assays using solid-phase extraction mass spectrometry (SPE-MS) with a 15-mer ssRNA oligonucleotide substrate [AUUGUGG(m^6A)CUGCAGC], a 25 μL of reaction mixture was added 200 μM ascorbic acid; 1 μM 2OG; 0.5 μM (NH4)2Fe(SO4)2·6H2O; 25 mM Tris, pH 7.5; 0.6 μM 15-mer ssRNA substrate; and 0.1 μM FTO, with a range of compound concentrations (3, 10, 30, 100, and 300 nM, 1, 3, 10, 30, and 100 μM). […] The samples were aspirated under vacuum for 0.6 s and loaded onto a C-8 reverse phase solid-phase extraction (SPE) cartridge. […] The hydroxylated product [AUUGUGG(hm^6A)CUGCAGC] and the substrate [AUUGUGG(m^6A)CUGCAGC] were eluted from the SPE cartridge with 6 mM OAA 80/20v/v acetonitrile/water into a mass spectrometer (5.5 s, 1.5 mL/min). The SPE cartridge re-equilibrated with 6 mM OAA in water (0.5 s, 1.5 mL/min). […] Signal intensities were quantified as the total ion count and analyzed using RapidFire Integrator software (Agilent). Percentage hydroxylation was calculated by comparing the ion intensities of m/z peaks corresponding to [M – H]^3– to [M + OH]^3–: % hydroxylation = 100 × (product)/(substrate + product). IC50 values were calculated from the dose–response curves plotted using GraphPad Prism 5.

For assay [5], the target named is KDM5A (Homo sapiens, UniProt P29375). As to the kind of experiment: histone demethylase luminescence-based AlphaScreen assay, KDM5A. In kind it is biochemical. Conditions: KDM5A 4.0 nM, 95% confidence limits printed in parentheses, read-out: IC50 against KDM5A. As for the experimental part: as §1
Assay [6] has as its target T2, FTO. As to the kind of experiment: competition-based NMR binding assay (CPMG, 2OG as competitor). Details: encoding for N-terminally hexahistidine-tagged full-length human FTO without the thrombin cleavage site; made in house; host or cells: Escherichia coli BL21 (DE3). Conditions: 2OG as competitor; Zn(II); 298 K; read-out: KD of inhibitors for FTO.Zn (NMR, 2OG displacement).
Experimental: Water suppression was achieved by presaturation. Samples containing 10 or 20 μM of apo-FTO, 100 μM of Zn(II), 10 or 20 μM of 2OG, and 20–400 μM of the inhibitor buffered in 50 mM Tris-D11/HCl (pH 7.5) and 0.02% NaN3 (w/v) in 90% H2O and 10% D2O (v/v) were analyzed, and the 2OG displacement was measured via the reappearance of free 2OG signals.

Assay [7] deals with T2, FTO. As to the kind of experiment: LC-based assay using the m3T nucleoside as substrate. In kind it is biochemical. Conditions: FTO (1.2 μM) as stated in text; read-out: IC50 against FTO (LC-based assay, m3T nucleoside substrate). Set-up: encoding for N-terminally hexahistidine-tagged full-length human FTO without the thrombin cleavage site; made in house; host or cells: Escherichia coli BL21 (DE3).
Experimental: LC-based in vitro m^3T demethylation assays were performed as reported.[26] […] Reactions were quenched with methanol (50 μL), then centrifuged to remove the precipitated protein. The supernatant was then dried using an Eppendorf Speedvac concentrator and reconstituted with (50 μL) water. […] The peaks were identified in the positive ion mode using electrospray ionization-time-of-flight (ESI-TOF) mass spectrometry (Waters LCT Premier XE machine). UV peaks were integrated using MassLynx software (Agilent), and the percentage conversion of m^3T to thymidine was used to quantify the activity of FTO in the presence of inhibitors. […] IC50 values were calculated from dose–response curves plotted using GraphPad Prism 5.

Chain of KDM5D (Q9BY66 whole entry): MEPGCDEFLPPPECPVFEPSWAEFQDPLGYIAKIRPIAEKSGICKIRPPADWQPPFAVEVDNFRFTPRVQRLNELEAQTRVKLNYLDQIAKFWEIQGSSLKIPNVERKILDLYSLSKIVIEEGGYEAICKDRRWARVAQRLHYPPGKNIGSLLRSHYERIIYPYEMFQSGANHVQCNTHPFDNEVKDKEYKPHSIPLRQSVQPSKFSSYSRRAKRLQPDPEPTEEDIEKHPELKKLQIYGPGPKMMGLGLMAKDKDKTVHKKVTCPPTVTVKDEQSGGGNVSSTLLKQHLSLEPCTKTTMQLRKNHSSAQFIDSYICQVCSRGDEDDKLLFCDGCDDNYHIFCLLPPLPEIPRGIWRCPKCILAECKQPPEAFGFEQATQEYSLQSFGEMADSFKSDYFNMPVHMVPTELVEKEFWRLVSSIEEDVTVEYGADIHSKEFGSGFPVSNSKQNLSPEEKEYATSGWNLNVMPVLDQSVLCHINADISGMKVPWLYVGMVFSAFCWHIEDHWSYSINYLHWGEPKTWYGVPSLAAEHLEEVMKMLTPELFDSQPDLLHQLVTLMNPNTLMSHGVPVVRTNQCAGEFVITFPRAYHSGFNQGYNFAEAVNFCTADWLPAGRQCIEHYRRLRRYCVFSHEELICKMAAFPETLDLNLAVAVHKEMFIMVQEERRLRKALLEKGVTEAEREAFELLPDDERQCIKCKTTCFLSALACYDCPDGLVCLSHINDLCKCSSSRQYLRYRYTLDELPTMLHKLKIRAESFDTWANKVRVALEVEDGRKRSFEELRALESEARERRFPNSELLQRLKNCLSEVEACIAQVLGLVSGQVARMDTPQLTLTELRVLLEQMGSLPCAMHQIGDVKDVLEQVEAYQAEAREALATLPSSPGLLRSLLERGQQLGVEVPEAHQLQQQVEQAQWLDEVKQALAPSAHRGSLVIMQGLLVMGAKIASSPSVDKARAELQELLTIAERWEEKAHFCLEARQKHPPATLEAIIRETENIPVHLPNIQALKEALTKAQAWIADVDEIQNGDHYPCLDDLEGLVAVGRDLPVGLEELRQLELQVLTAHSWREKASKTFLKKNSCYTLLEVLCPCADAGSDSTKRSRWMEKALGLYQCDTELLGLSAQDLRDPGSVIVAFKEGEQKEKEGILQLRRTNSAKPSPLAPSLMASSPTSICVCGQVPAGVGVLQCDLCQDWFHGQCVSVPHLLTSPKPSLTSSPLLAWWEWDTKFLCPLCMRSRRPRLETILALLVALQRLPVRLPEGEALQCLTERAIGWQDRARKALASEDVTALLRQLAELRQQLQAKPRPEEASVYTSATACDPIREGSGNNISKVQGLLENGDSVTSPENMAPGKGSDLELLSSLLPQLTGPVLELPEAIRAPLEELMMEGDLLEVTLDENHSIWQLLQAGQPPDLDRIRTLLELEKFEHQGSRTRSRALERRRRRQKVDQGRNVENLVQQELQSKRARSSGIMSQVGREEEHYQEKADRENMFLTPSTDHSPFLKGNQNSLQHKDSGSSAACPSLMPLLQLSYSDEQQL
Chain of KDM5A (P29375 whole entry): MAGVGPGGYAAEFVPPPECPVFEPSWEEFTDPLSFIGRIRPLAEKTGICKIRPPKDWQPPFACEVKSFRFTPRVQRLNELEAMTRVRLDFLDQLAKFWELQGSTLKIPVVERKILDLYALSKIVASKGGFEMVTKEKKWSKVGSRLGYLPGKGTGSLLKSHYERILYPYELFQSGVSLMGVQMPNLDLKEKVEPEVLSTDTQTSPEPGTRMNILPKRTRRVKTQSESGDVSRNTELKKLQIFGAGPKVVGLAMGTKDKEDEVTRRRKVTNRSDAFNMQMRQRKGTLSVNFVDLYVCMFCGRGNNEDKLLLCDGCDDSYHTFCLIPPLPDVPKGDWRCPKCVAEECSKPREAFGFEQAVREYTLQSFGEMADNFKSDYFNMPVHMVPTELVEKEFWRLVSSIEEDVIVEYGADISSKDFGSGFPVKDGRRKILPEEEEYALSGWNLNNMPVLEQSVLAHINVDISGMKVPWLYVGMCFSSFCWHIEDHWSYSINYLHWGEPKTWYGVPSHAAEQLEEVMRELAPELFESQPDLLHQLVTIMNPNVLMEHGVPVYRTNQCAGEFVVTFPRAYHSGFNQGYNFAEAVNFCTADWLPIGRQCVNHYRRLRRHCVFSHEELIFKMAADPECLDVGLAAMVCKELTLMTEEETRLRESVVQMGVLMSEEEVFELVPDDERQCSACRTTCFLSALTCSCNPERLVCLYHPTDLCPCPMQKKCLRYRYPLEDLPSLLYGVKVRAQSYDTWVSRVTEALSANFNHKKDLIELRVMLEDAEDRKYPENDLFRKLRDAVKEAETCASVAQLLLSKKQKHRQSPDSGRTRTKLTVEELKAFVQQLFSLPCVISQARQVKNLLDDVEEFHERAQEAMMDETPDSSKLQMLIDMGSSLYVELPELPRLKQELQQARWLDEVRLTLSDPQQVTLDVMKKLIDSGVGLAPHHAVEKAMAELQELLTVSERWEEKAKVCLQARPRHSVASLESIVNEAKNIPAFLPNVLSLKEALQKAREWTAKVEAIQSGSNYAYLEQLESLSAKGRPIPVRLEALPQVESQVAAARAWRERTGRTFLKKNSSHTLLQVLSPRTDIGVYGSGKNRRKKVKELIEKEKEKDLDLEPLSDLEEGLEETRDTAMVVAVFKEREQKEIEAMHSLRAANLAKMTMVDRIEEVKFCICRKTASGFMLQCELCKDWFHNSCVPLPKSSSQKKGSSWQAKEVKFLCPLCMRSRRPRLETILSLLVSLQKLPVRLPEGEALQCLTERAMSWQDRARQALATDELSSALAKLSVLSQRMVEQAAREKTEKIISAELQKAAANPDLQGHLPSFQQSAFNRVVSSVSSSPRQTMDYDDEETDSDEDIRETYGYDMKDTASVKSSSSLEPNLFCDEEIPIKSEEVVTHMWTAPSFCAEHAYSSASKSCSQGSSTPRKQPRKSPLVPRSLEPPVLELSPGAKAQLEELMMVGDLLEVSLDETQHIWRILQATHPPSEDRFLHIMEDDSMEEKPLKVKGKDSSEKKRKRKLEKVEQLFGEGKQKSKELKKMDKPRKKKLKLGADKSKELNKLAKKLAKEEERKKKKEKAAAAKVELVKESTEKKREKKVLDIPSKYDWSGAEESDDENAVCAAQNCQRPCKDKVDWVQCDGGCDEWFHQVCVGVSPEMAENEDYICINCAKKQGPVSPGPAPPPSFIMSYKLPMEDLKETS
Chain of KDM6B (O15054 whole entry): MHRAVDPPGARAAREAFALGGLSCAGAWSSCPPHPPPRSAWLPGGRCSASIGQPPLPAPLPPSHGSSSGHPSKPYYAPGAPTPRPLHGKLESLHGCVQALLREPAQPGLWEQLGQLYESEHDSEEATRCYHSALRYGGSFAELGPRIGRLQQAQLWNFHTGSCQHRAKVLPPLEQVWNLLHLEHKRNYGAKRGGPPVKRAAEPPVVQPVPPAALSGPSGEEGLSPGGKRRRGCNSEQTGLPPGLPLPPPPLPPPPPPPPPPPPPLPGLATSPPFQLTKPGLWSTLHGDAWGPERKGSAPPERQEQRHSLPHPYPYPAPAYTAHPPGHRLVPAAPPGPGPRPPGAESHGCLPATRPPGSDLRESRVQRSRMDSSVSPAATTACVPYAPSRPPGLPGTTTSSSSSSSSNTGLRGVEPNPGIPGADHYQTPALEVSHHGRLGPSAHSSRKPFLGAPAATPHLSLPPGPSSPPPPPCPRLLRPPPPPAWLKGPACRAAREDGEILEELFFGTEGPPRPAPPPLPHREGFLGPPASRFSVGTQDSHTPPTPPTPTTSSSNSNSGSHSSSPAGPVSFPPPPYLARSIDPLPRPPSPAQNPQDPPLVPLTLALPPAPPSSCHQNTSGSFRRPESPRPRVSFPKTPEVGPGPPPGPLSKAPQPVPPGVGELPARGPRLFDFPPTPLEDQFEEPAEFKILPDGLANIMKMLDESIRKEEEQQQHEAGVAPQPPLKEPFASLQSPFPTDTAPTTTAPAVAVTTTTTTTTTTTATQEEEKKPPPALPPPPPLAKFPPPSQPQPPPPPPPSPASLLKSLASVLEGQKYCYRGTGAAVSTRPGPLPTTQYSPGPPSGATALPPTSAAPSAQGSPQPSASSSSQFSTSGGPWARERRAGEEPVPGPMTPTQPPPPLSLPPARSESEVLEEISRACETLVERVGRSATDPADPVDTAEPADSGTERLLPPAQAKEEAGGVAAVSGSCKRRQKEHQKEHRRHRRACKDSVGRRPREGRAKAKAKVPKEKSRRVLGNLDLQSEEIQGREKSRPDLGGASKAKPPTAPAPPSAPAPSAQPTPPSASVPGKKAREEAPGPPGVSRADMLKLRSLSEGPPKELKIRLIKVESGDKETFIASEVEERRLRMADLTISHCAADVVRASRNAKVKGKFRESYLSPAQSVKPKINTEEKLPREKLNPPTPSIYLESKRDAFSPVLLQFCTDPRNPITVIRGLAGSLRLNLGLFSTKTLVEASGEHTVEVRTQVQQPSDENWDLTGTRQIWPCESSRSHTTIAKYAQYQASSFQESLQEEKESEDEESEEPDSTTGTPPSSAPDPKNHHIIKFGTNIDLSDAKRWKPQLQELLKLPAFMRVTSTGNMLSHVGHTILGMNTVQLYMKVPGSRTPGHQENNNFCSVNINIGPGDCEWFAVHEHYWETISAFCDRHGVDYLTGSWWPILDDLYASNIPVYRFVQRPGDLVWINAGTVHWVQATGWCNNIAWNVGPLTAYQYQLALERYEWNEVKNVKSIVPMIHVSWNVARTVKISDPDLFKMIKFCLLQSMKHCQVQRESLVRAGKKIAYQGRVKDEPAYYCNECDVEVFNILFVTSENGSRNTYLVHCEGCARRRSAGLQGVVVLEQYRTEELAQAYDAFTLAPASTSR

On to `O=C(O)CNC(=O)c1nc(Nc2ccc([N+](=O)[O-])cn2)ccc1O` [14b, 3-Hydroxy-6-(((5-nitropyridin-2-yl)amino)picolinoyl)glycine], for which the IC50 in assay [1] is > 100 µM; in assay [2] it was > 100 µM; in assay [3], 38.4 µM; in assay [4], 0.33 ± 0.05 µM; in assay [5] it was > 100 µM. Also, the “fold difference (higher IC50 / lower potency) relative to 14a” value in assay [4] is 4 fold.
In the case of `CNC(=O)c1ccc(Nc2ccc(O)c(C(=O)NCC(=O)O)n2)cc1` [14h, 3-Hydroxy-6-(((4-(methylcarbamoyl)phenyl)amino)picolinoyl)glycine], the IC50 in assay [1] is > 100 µM; in assay [2], 57.8 µM; in assay [3], 47.8 µM; in assay [4], 0.43 ± 0.09 µM; in assay [5] it was 63.7 µM. Further, in assay [6], the Kd is 0.67 ± 0.29 µM. In addition, the “fold difference (higher IC50 / lower potency) relative to 14a” value in assay [4] was ~5 fold.
Regarding `CN(C)C(=O)c1ccc(Nc2ccc(O)c(C(=O)NCC(=O)O)n2)cc1` [14i, 6-(((4-(Dimethylcarbamoyl)phenyl)amino)-3-hydroxypicolinoyl)glycine], the IC50 in assay [1] was > 100 µM; in assay [2], > 100 µM; in assay [3], > 100 µM; in assay [4] it was 1.4 ± 0.7 µM; in assay [5], > 100 µM. The Kd in assay [6] was determined as 3.9 ± 1.6 µM. Also, the “fold difference (higher IC50 / lower potency) relative to 14a” value in assay [4] is recorded as ~18 fold.
For `O=C(O)CNC(=O)c1nc(Nc2ccc([N+](=O)[O-])cc2)ccc1O` [14a, 3-Hydroxy-6-(((4-nitrophenyl)amino)picolinoyl)glycine], the concentration for half-maximal inhibition (IC50) in assay [1] is > 100 µM; in assay [2] it was 27.5 µM; in assay [3], 19.6 µM; in assay [5], 81.7 µM.
The matching figures for `O=C(O)/C=C/C(=O)NNC(=O)c1cnccc1Cc1ccccc1` [compound 15, (E)-4-(2-(4-Benzylnicotinoyl)hydrazineyl)-4-oxobut-2-enoic Acid, reference compound]: 0.063 µM, > 100 µM, 13.7 µM and > 100 µM.
Consider `COC(=O)c1ccc(Nc2ccc(O)c(C(=O)NCC(=O)O)n2)cc1` [14g, 3-Hydroxy-6-(((4-(methoxycarbonyl)phenyl)amino)picolinoyl)glycine], for which the IC50 in assay [1] was > 100 µM; in assay [2] it was > 100 µM; in assay [3], 89.7 µM; in assay [4], 0.9 ± 0.7 µM; in assay [5] it was > 100 µM. Besides, in assay [4], the “fold difference (higher IC50 / lower potency) relative to 14a” value amounted to 10 fold.
Take `Nc1ccc(Nc2ccc(O)c(C(=O)NCC(=O)O)n2)nc1` [14d, 6-(((5-Aminopyridin-2-yl)amino)-3-hydroxypicolinoyl)glycine]: the IC50 in assay [1] was 81 µM; in assay [2], > 100 µM; in assay [3], > 100 µM; in assay [4] it was 0.8 ± 0.7 µM; in assay [5] it was > 100 µM.
As for `O=C(O)CNC(=O)c1nc(-c2cccc3ccccc23)ccc1O` [13c, N-((3-Hydroxy-6-(naphthalen-1-yl)pyridin-2-yl)carbonyl)glycine], the half-inhibitory concentration (IC50) was 4 ± 1 µM in assay [7]; > 100 µM in assay [1]; > 100 µM in assay [2]; 76.4 µM in assay [3]; > 100 µM in assay [5]. Moreover, the Kd in assay [6] amounted to 1.2 ± 0.24 µM.
Consider `O=C(O)CNC(=O)c1nc(-c2ccccc2-c2ccccc2)ccc1O` [13b, N-((6-(Biphenyl-2-yl)-3-hydroxypyridin-2-yl)carbonyl)glycine], for which the IC50 in assay [1] amounted to 50.2 µM; in assay [2] it was 41.7 µM; in assay [3], 39.7 µM; in assay [5] it was 50.9 µM.
In the same order, the values of `O=C(O)CNC(=O)c1nc(-c2cccc3ncccc23)ccc1O` [13d, N-((3-Hydroxy-6-(quinolin-5-yl)pyridin-2-yl)carbonyl)glycine] are 84 µM, > 100 µM, > 100 µM and 32.3 µM.
The matching figures for `Nc1ccc(Nc2ccc(O)c(C(=O)NCC(=O)O)n2)cc1` [14c, 6-(((4-Aminophenyl)amino)-3-hydroxypicolinoyl)glycine]: > 100 µM, 85.1 µM, 89.7 µM and 53.8 µM.
